For one test, the system named is BnSCL1 gene expression. Put plainly: Quantitative one-step RT-PCR of BnSCL1 expression in treated seedlings. In kind it is in vivo, Brassica napus. The conditions noted are these: 10 mM for 24 h, then 2,4-D 10^-6 to 10^3 μM. As for the experimental part: In exogenous applied auxin treatments, four-leaf stage seedlings grown at 20° C. were treated with a foliar spray containing 1 mM 2,4-D and 50 mM sodium phosphate, pH 7.5. The four leaves were collected at 30 min, 60 min and 180 min after the first foliar application of 2,4-D. For the measurement of response of shoots and roots to auxin, sterilized seeds were germinated on plates in a growth chamber with continuous light at 20° C., and 10 dpg seedlings were supplied with varied concentration of 2,4-D. In the auxin transport inhibition experiments, 9 dpg seedlings were incubated in the medium supplemented with 50 μM NPA dissolved in 0.1% DMSO for 24 h before the 2,4-D treatment. For the HDAC inhibitor treatments, 10 mM sodium butyrate was added onto the growth medium and incubated for 24 h followed by exogenous 2,4-D application at varied concentrations.
Total RNA extracted as described above was treated with Amplification Grade Deoxyribonuclease I (GibcoL BRL) following the manufacture's instructions. The RNA samples were then directly used for reverse transcription prior to amplification without purification. The RT-PCR was quantitatively performed and completed in a one-step reaction using […] One-Step RT-PCR System (GibcoL BRL) as described by Gao et al. (2002). Gene-specific sense and anti-sense primers used to generate a 960 bp fragment of Brassica napus Actin, as an internal standard, were as described in Gao et al., (2002). Gene-specific primers for the generation of BnSCL1, BnIAA1 and BnIAA12 fragments were as follows: […]

In test [1] the test system is auxin-inducible GUS expression. The conditions noted are these: seedlings, up to 1 mM for 24 h; cited from earlier work.

On to `CCCC(=O)[O-].[Na+]` [sodium butyrate], for which the “BnSCL1 expression profile in shoots and roots in response to auxin after HDAC inhibition” value in the test on BnSCL1 gene expression is “upregulated by auxin at concentration of 1 pM and downregulated by auxin at higher concentrations”. Also, in test [1], the “effect on auxin-inducible GUS expression” value is on record as “no effect”.

Values taken from US7553667B2, “Regulation of gene expression using chromatin remodelling factors” (Her Majesty the Queen in right of Canada as represented by …, priority 2002, dated 2009).
